Source: PMC11404609, “Gut microbiota-mediated C-sulfonate metabolism impairs the bioavailability and anti-cholestatic efficacy of andrographolide” (Gut Microbes, 2024)

Tested on: D. piger
Format: in vitro ADME, Desulfovibrio piger
Method: The cecum contents from mice were collected and mixed with sterilized anaerobic medium in a ratio of 1.0 g to 10 mL, with gentle agitation. After filtered, the mixed medium containing the intestinal flora was placed in an anaerobic environment and preincubated at 37°C for 30 min before use. Mixed medium with or without APS reductase inhibitor bromocriptine mesylate (20 μg/mL) was incubated with AP (10 μg/mL), while autoclaved mixed medium without APS reductase inhibitor served as the control. Incubation was performed in a shaking incubator at 37°C for 6 h, with strict maintenance of anaerobic condition throughout the process.[44] Similarly, D. piger (0.2 mL, 1 × 10^8 CFU/mL) with or without inhibitor, was incubated with AP for 0, 3, 6, and 12 h, with autoclaved D. piger without inhibitor serving as the control. […] And then samples were analyzed by UPLC-MS/MS to detect the concentrations of AP and APM. Concentrations of APS reductase and HSO3^− were also determined at the end of incubation.
For the determination of APS reductase concentration, the supernatant from mouse cecum contents and the D. piger strain were assessed using microorganism APS reductase elisa assay kit (Shanghai Senxingyan Biotechnology Co., Ltd., China), following the instructions provided with the kit. […] Subsequently, the absorbance of the resulting solutions was measured at a wavelength of 560 nm after 40 min.

C=C1CC[C@@H]2[C@](C)(CO)[C@H](O)CC[C@@]2(C)[C@@H]1C/C=C1/C(=O)OC[C@H]1O [AP, Andrographolide]
metabolism of AP into APM by D. piger in vitro: time-dependent ability to metabolize AP into APM
